Test results as given in US9980943B2, “Methods of treating muscular dystrophy” (BOARD OF REGENTS OF THE NEVADA SYSTEM OF HIGHER EDUCATION, …, priority 2013, dated 2018).

Columns and labels:
Format in all cases: cell-based, mouse
[1] = test system: α7 integrin (LacZ reporter in α7βgal+/− myoblasts); assay: Myoblast α7+/LacZ integrin FDG assay (Burkin assay in myoblasts, 96-well); conditions: α7+/LacZ myoblasts, 96-well
[2] = test system: α7 integrin (LacZ reporter in α7+/LacZ myotubes); assay: Myotube α7 integrin FDG assay (Burkin assay in myotubes, 96-well); conditions: myotubes
[3] = test system: β-galactosidase in CMV-LacZ C2C12 myoblasts; assay: CMV-LacZ secondary screen in C2C12 myoblasts (β-Gal stabilizing assay); conditions: CMV-LacZ C2C12 myoblasts
Method in brief: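 First, C2C12 myoblasts were transfected with a linearized CMV-LACZ vector and clonal lines selected by FDG β-gal assay. Then cells were exposed to compounds at 0.5, 1, 5, 10, 20 and 40 μM in 96-well format, two replicates each, and β-gal measured.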

[4] = test system: β-galactosidase in CMV-LacZ C2C12 myotubes; assay: CMV-LacZ secondary screen in C2C12 myotubes (β-Gal stabilizing assay); conditions: C2C12 CMV-LacZ myotubes, fold relative to DMSO
Method in brief: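 Stable CMV-LacZ C2C12 clone; six-point curve 0.5–40 μM; duplicates.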

## COc1ccc(N2CCN(C(=O)c3cc(C)on3)CC2)cc1 [MLS001124046-01]
[1]; Mus musculus, Myoblast, 48 h, 0.5 uM, read-out: Burkin Assay in Myoblasts, signal relative to DMSO
  fold induction at 0.5 µM: 1.06
[1]; Mus musculus, Myoblast, 48 h, 1 uM, read-out: Burkin Assay in Myoblasts, signal relative to DMSO
  fold induction at 1 µM: 1.16
[1]; Mus musculus, Myoblast, 48 h, 5 uM, read-out: Burkin Assay in Myoblasts, signal relative to DMSO
  fold induction at 5 µM: 1.08
[1]; Mus musculus, Myoblast, 48 h, 10 uM, read-out: Burkin Assay in Myoblasts, signal relative to DMSO
  fold induction at 10 µM: 1.01
[1]; Mus musculus, Myoblast, 48 h, 20 uM, read-out: Burkin Assay in Myoblasts, signal relative to DMSO
  fold induction at 20 µM: 1.1
[1]; Mus musculus, Myoblast, 48 h, 40 uM, read-out: Burkin Assay in Myoblasts, signal relative to DMSO
  fold induction at 40 µM: 1.07
[2]; Mus musculus, Myotube, 0.5 uM, read-out: Burkin Assay in Myotubes, α7 integrin LacZ reporter signal relative to DMSO
  fold induction at 0.5 µM: 1.15
[2]; Mus musculus, Myotube, 1 uM, read-out: Burkin Assay in Myotubes, α7 integrin LacZ reporter signal relative to DMSO
  fold induction at 1 µM: 1.1
[2]; Mus musculus, Myotube, 5 uM, read-out: Burkin Assay in Myotubes, α7 integrin LacZ reporter signal relative to DMSO
  fold induction at 5 µM: 1.42
[2]; Mus musculus, Myotube, 10 uM, read-out: Burkin Assay in Myotubes, α7 integrin LacZ reporter signal relative to DMSO
  fold induction at 10 µM: 1.02
[2]; Mus musculus, Myotube, 20 uM, read-out: Burkin Assay in Myotubes, α7 integrin LacZ reporter signal relative to DMSO
  fold induction at 20 µM: 0.893
[2]; Mus musculus, Myotube, 40 uM, read-out: Burkin Assay in Myotubes, α7 integrin LacZ reporter signal relative to DMSO
  fold induction at 40 µM: 0.92
[3]; 0.5 uM
  CMV-LACZ in Myoblasts (β-galactosidase activity relative to DMSO): 0.8409
[3]; 1 uM
  CMV-LACZ in Myoblasts (β-galactosidase activity relative to DMSO): 1.2650
[3]; 5 uM
  CMV-LACZ in Myoblasts (β-galactosidase activity relative to DMSO): 0.9307
[3]; 10 uM
  CMV-LACZ in Myoblasts (β-galactosidase activity relative to DMSO): 0.8501
[3]; 20 uM
  CMV-LACZ in Myoblasts (β-galactosidase activity relative to DMSO): 0.9881
[3]; 40 uM
  CMV-LACZ in Myoblasts (β-galactosidase activity relative to DMSO): 1.0807
[4]; Mus musculus, C2C12, read-out: CMV-LACZ in Myotubes, signal relative to DMSO, 0.5 uM
  fold induction at 0.5 µM: 1.02
[4]; Mus musculus, C2C12, read-out: CMV-LACZ in Myotubes, signal relative to DMSO, 1 uM
  fold induction at 1 µM: 1.02
[4]; Mus musculus, C2C12, read-out: CMV-LACZ in Myotubes, signal relative to DMSO, 5 uM
  fold induction at 5 µM: 0.84
[4]; Mus musculus, C2C12, read-out: CMV-LACZ in Myotubes, signal relative to DMSO, 10 uM
  fold induction at 10 µM: 1.02
[4]; Mus musculus, C2C12, read-out: CMV-LACZ in Myotubes, signal relative to DMSO, 20 uM
  fold induction at 20 µM: 1.09
[4]; Mus musculus, C2C12, read-out: CMV-LACZ in Myotubes, signal relative to DMSO, 40 uM
  fold induction at 40 µM: 0.981

## Cl.O=C1C2CCCN2C(=O)N1CCCN1CCN(c2cccc(Br)c2)CC1 (stereo not drawn) [MLS001180929-01]
[1]; 0.5 uM
  Burkin Assay in Myoblasts, signal relative to DMSO: 1.077
[1]; 1 uM
  Burkin Assay in Myoblasts, signal relative to DMSO: 1.0555
[1]; 5 uM
  Burkin Assay in Myoblasts, signal relative to DMSO: 1.05
[1]; 10 uM
  Burkin Assay in Myoblasts, signal relative to DMSO: 1.05
[1]; 20 uM
  Burkin Assay in Myoblasts, signal relative to DMSO: 1.102
[1]; 40 uM
  Burkin Assay in Myoblasts, signal relative to DMSO: 1.1941
[2]; 0.5 uM
  Burkin Assay in Myotubes, α7 integrin LacZ reporter signal relative to DMSO: 0.899
[2]; 1 uM
  Burkin Assay in Myotubes, α7 integrin LacZ reporter signal relative to DMSO: 0.9256
[2]; 5 uM
  Burkin Assay in Myotubes, α7 integrin LacZ reporter signal relative to DMSO: 0.9643
[2]; 10 uM
  Burkin Assay in Myotubes, α7 integrin LacZ reporter signal relative to DMSO: 1.03
[2]; 20 uM
  Burkin Assay in Myotubes, α7 integrin LacZ reporter signal relative to DMSO: 0.8659
[2]; 40 uM
  Burkin Assay in Myotubes, α7 integrin LacZ reporter signal relative to DMSO: 1.135
[3]; 0.5 uM
  CMV-LACZ in Myoblasts (β-galactosidase activity relative to DMSO): 0.8571
[3]; 1 uM
  CMV-LACZ in Myoblasts (β-galactosidase activity relative to DMSO): 0.9288
[3]; 5 uM
  CMV-LACZ in Myoblasts (β-galactosidase activity relative to DMSO): 0.8251
[3]; 10 uM
  CMV-LACZ in Myoblasts (β-galactosidase activity relative to DMSO): 0.8753
[3]; 20 uM
  CMV-LACZ in Myoblasts (β-galactosidase activity relative to DMSO): 0.9811
[3]; 40 uM
  CMV-LACZ in Myoblasts (β-galactosidase activity relative to DMSO): 0.6163
[4]; 0.5 uM
  CMV-LACZ in Myotubes, signal relative to DMSO: 0.8848
[4]; 1 uM
  CMV-LACZ in Myotubes, signal relative to DMSO: 0.7876
[4]; 5 uM
  CMV-LACZ in Myotubes, signal relative to DMSO: 1.0533
[4]; 10 uM
  CMV-LACZ in Myotubes, signal relative to DMSO: 1.0084
[4]; 20 uM
  CMV-LACZ in Myotubes, signal relative to DMSO: 1.1347
[4]; 40 uM
  CMV-LACZ in Myotubes, signal relative to DMSO: 1.0274
